Assay [1] concerns A-375. As to the kind of experiment: Antiproliferative activity against human A-375 cells harboring BRAF V600E mutant assessed as reduction in cell growth. The format is functional, cell-based.
Assay [2] addresses Vascular endothelial growth factor receptor 2 (Homo sapiens, UniProt P35968). The assay can be described thus: Inhibition of human recombinant VEGFR2 by FRET based Z-LYTE kinase assay.

Sequence of Vascular endothelial growth factor receptor 2 (P35968 whole entry): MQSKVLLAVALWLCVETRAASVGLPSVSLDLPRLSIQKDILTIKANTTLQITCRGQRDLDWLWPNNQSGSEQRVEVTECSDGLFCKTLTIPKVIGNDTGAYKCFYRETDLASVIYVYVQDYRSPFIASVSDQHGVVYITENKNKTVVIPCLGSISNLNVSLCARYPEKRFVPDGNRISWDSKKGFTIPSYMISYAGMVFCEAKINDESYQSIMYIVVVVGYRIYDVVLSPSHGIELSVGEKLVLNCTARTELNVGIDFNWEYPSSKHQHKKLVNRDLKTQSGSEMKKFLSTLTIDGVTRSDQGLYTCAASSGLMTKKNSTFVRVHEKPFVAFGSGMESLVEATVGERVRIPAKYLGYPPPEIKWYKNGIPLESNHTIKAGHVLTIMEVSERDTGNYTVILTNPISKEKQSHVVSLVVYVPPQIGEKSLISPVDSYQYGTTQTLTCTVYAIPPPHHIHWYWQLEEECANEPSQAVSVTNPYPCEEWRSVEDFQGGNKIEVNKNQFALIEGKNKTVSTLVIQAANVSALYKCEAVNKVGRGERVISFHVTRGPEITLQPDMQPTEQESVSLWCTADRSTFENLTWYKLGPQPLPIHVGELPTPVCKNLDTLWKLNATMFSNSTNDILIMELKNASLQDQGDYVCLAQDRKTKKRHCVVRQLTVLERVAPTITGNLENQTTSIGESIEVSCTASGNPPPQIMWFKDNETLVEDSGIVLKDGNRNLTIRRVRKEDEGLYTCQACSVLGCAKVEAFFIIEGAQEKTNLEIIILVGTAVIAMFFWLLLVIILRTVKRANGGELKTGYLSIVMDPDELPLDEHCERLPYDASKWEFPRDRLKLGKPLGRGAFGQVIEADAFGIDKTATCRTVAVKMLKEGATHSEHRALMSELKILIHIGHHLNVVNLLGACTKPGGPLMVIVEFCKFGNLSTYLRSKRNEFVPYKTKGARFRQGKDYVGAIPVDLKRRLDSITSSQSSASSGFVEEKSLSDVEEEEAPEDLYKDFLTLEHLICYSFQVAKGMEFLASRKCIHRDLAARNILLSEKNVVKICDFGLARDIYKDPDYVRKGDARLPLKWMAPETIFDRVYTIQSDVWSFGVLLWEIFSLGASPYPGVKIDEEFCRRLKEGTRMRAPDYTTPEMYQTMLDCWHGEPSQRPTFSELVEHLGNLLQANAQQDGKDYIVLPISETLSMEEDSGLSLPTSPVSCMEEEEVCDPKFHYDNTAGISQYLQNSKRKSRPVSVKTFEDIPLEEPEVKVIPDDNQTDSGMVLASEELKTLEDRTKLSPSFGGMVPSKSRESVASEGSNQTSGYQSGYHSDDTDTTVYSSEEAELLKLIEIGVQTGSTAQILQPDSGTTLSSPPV

In general, EC50 refers to the concentration needed to bring the measured effect to its halfway point. Consider `COC(=O)N[C@@H](C)CNc1nccc(-c2cn(C(C)C)nc2-c2cc(Cl)cc(NS(C)(=O)=O)c2F)n1` [ENCORAFENIB], for which the EC50 in assay [1] is 4 nM.

By IC50 is commonly meant the midpoint of a concentration-inhibition curve. Turning to `CNC(=O)c1c(C)oc2cc(Oc3ncnc4cc(OC)c(OC)cc34)ccc12` [FRUQUINTINIB], the IC50 in assay [2] stood at 0.35 nM.

The record behind these values is ChEMBL document CHEMBL5512602, “Unlocking the synthetic approaches and clinical application of approved small-molecule drugs for gastrointestinal cancer treatment: A comprehensive exploration” (Eur J Med Chem, 2023).
